This is an account of results in the RepoRT retention time repository.

The data set can be described thus: Agilent ZORBAX 300 SB-C18, 150 × 1 mm, 3.5 µm; A: water + 0.01% heptafluorobutyric acid; B: acetonitrile + 0.01% heptafluorobutyric acid; gradient (min/%B) 0/0 100/90. The settings on record: stereoisomer not certain.
With `C=CCC1NC(C)(C)Cc2ccccc21` (centres undefined), the LC retention time is 9 min. To `OC(Cn1cccc1)c1ccccc1` (centres undefined) belongs 11.8 min; to `CCOC(=O)c1ccc(Nc2c(N)c(=O)oc3ccccc23)cc1`, 14 min. To `O=C(CN1CCN(C(=O)CNC2CCCCC2)CC1)NC1CCCCC1` belongs 9.54 min. Regarding `c1ccc2nccnc2c1`, the LC retention time turned out to be 8.94 min. To `Nc1cccc(Nc2ccccc2)c1` belongs 9.53 min; to `c1csc(CN2CCNCC2)c1`, 7.6 min; to `CCn1c(C)n[nH]c1=S`, 6.98 min. Regarding `Cc1ccc(-c2nc3ccccc3s2)cc1`, the LC retention time is 17.9 min. The figure for `Cc1ccc(C=Cc2nnc(-c3ccccc3C)o2)cc1` is 18.1 min; for `CCCC(=O)Nc1cccc(C(=O)Nc2ccc(C(=O)O)cc2)c1` it is 10.5 min; for `C1CNCCN1` it is 6.38 min. With `Cc1ccc(NC(=S)NN=C2CCN(C(C)C)CC2)cc1`, the LC retention time stood at 9.64 min. To `CCN(C(C)C)C(C)C` belongs 7.51 min; to `O=C(O)CC(C(=O)O)c1c[nH]c2ccccc12` (centres undefined), 8.46 min.

For `Cc1c(N)cc(N)cc1NC(=O)c1ccccc1`, the LC retention time was 8.28 min. The figure for `O=C(Nc1cccnc1)c1ccc(=O)[nH]n1` is 6.84 min. To `CCN(CC)c1ccc(C=NNC(=O)C(C)Nc2ccc3ccccc3c2)cc1` (centres undefined) belongs 14.3 min; to `CC(=O)c1cccc(NC(=O)Nc2ccc(C)cc2)c1`, 12.9 min; to `NCCCCC(NC(CCc1ccccc1)C(=O)[O-])C(=O)N1CCCC1C(=O)O` (centres undefined), 8.09 min. In the case of `CCN(CC)CC(CP(=O)(O)O)P(=O)(O)O` (centres undefined), the LC retention time came to 1.13 min. On to `Cc1cccc(C=NNC(=O)c2cc3ccccc3cc2O)c1`, for which the LC retention time turned out to be 14.9 min. The figure for `CC(NC(=O)c1ccccc1)C(=O)O` (centres undefined) is 8 min.

Regarding `O=C(NN=Cc1cccc(O)c1)c1cc2ccccc2cc1O`, the LC retention time was 12.2 min. In the case of `O=c1nc(N2CCOCC2)nc(N(c2ccccc2)c2ccccc2)[nH]1`, the LC retention time was 10.5 min. Take `C1=Nc2ccccc2C(c2cccc3ccccc23)C1c1ccc2ccccc2n1` (centres undefined): the LC retention time came to 12.9 min. The figure for `CNCc1cccc(C)c1` is 8.02 min. The figure for `Cc1nc2ccccc2[nH]1` is 7.36 min; for `Nc1ccc(N)cc1` it is 4.51 min. Take `c1cncc(CNc2c3c(nc4ccccc24)CCC3)c1`: the LC retention time amounted to 8.56 min.

In the case of `CN(C)CCC(C)(O)Cc1ccccc1` (centres undefined), the LC retention time is 8.38 min. In the case of `CNC(C)=O`, the LC retention time was determined as 2.1 min. For the molecule `Cc1cc(N)c2c(c1)CCC(=O)N2`, the LC retention time was 8.69 min. On to `COc1cc2ccccc2cc1CNc1ccccc1`, for which the LC retention time amounted to 15.7 min. To `Cc1[nH]c2ccccc2c1Cc1nc2ccccc2[nH]1` belongs 9.93 min; to `CC(=O)Nc1c2ccccc2nc2ccccc12`, 7.89 min; to `Cn1nc(-c2ccccc2)c(-c2ccccc2)c(C(=O)O)c1=O`, 11.2 min.

As to `c1ccc(SCSc2ccccn2)nc1`, the LC retention time was 13.7 min. Turning to `CCCCCCCCCC[N+](C)(C)C`, the LC retention time came to 12.3 min. To `Cc1ccc(N2C3=C(C(=O)CC(C)(C)C3)C(c3ccccc3)C3=C2c2ccccc2C3=O)cc1` (centres undefined) belongs 18.4 min. For `O=C(O)c1cc(-c2ccccc2)c(C(=O)O)cn1`, the LC retention time was 6.42 min.

As to `N=C(N=C(N)N)N1CCSCC1`, the LC retention time was determined as 7.17 min. Consider `CCN1C(=O)C2C(C)NC3(C(=O)Nc4ccccc43)C2C1=O` (centres undefined), for which the LC retention time came out at 8.61 min. The figure for `C=Cc1ccc(CN(C)C)cc1` is 8.6 min.

As to `Cc1ccc(Nc2cc(=O)oc3ccccc23)cc1C`, the LC retention time came out at 14.2 min. `S=c1nc(C2CCCCC2)[nH][nH]1`: the LC retention time was determined as 8.76 min. The figure for `O=C(O)c1cc(=O)n(-c2ccc(S(=O)(=O)O)cc2)[nH]1` is 2.18 min. For `CCCCCCCCNCCCCCCCC`, the LC retention time came out at 14.8 min. To `CN(C)c1ccc(N)cc1` belongs 6.86 min; to `CC(=O)Oc1ccc(C(=O)N2CCc3ccccc32)cc1`, 13.2 min; to `Cn1ccc(C(=O)O)cc1=O`, 5.27 min. To `O=C(O)c1ccc2nccnc2c1` belongs 7.67 min; to `Nc1ccccc1C(=O)NN=C1CCCC1`, 10.1 min; to `COc1ccc(C2N(c3ccccc3)CCN2c2ccccc2)cc1`, 18.6 min. For the molecule `CC(C)c1cccc(C(C)C)c1NC(=O)COC(=O)CNC(=O)c1ccc(C(C)(C)C)cc1`, the LC retention time amounted to 17.6 min. The figure for `c1cnc2nc[nH]c2c1` is 6.03 min. The figure for `c1ccc(-n2ncc(-c3nn[nH]n3)n2)cc1` is 10.5 min; for `Cc1cccc2c1N(C)C(=O)C2=O` it is 10.1 min. Regarding `C[N+](C)(C)c1ccccc1`, the LC retention time stood at 7 min. The figure for `Cc1cc(=O)[nH]c(N=C(N)N2CCOCC2)n1` is 6.89 min; for `CC(C)(C)c1ccc(C(=O)N2CCN(Cc3ccccc3)CC2)cc1` it is 11.1 min; for `Cc1ccc(-c2nc(-c3c[nH]c4ccccc34)[nH]c2-c2ccc(C)cc2)cc1` it is 13.7 min. The figure for `CCOc1ccccc1CNC(N)=O` is 9.32 min.

For `CN1COc2ccc3ccccc3c2C1`, the LC retention time stood at 9.56 min. To `O=C1CC(N2CCN(C(c3ccccc3)c3ccccc3)CC2)C(=O)N1c1cccc2ccccc12` (centres undefined) belongs 12.4 min. The figure for `Nc1cccnc1` is 5.54 min.

Regarding `CN(C)CCCN1CCC(O)C2CCCCC21` (centres undefined), the LC retention time is 7.19 min. Turning to `CCCc1cc(C(N)=O)ccn1`, the LC retention time amounted to 7.11 min. `O=C(CNc1cccc2ccccc12)NN=CC=Cc1ccccc1`: the LC retention time turned out to be 15.5 min. Take `Cn1c(C(=O)N2CCN(C(c3ccccc3)c3ccccc3)CC2)cc(=O)n(C)c1=O`: the LC retention time was determined as 11.7 min. Turning to `CC1NC(=O)N(c2cccc(N)c2)C1=O` (centres undefined), the LC retention time amounted to 7.05 min. Regarding `O=P(O)(O)CN(CP(=O)(O)O)CP(=O)(O)O`, the LC retention time worked out at 1.08 min.

For the molecule `c1ccc2c3c([nH]c2c1)CCCC3`, the LC retention time came to 15.7 min. To `Cc1cc(-c2ccccc2)cc(-c2ccccc2)n1` belongs 12.1 min; to `CC(NC(=O)c1cccnc1)C(=O)N1CCCCC1` (centres undefined), 8.28 min; to `CN(C)CCN(C)CCN(C)CCN(C)C`, 7.61 min. The figure for `CC(C)CNC(=O)c1cccc2c1-c1ccccc1C2=O` is 13.3 min; for `O=C(O)C1CCCc2c1[nH]c1ccccc21` (centres undefined) it is 12.3 min; for `O=C1c2ccccc2CN1CCNC(=S)NC1CCCCC1` it is 12 min. Consider `CCCCN1CNC(=S)N(c2ccccc2C)C1`, for which the LC retention time is 12.6 min. The figure for `CC(C)Cn1c2ccccc2c2ccccc21` is 19.5 min; for `COc1ccc(-c2ccccc2)cc1N` it is 11.6 min; for `CCCCOC(=O)CCc1n[nH]c(=O)[nH]c1=O` it is 9.57 min. Regarding `C1CCCNCCC1`, the LC retention time amounted to 7.37 min. The figure for `c1cc(CCCc2ccncc2)ccn1` is 7.37 min. Turning to `N=c1oc2ccccc2cc1C(=O)Nc1ccc(Oc2ccccc2)cc1`, the LC retention time amounted to 13 min. With `Nc1cc(=O)[nH]c(=S)[nH]1`, the LC retention time is 2.25 min. To `NC1=NC(=Nc2ccc3c(c2)OCCO3)c2ccccc21` belongs 9.45 min. The figure for `CN(CCNc1ccccc1)C(N)=O` is 7.86 min; for `NCCc1ccccn1` it is 6.83 min; for `O=C(NCc1n[nH]c(=O)c2ccccc12)C(=Cc1ccco1)NC(=O)c1ccco1` it is 9.12 min.

Consider `Cc1nn(CC(=O)NCc2ccccn2)c(=O)c2ccccc12`, for which the LC retention time is 8.37 min. Turning to `CCc1ccccc1NCC(=O)O`, the LC retention time came to 11.1 min.

`CCNC(=S)NCCc1c[nH]c2ccccc12`: the LC retention time came to 11.2 min. To `Cc1ccc(NC(=S)NC2CC(C)(C)NC(C)(C)C2)c(C)c1` belongs 9.61 min; to `COc1ccccc1-n1c(=O)[nH][nH]c1=O`, 6.75 min.

On to `CCCN1CCC(=O)CC1`, for which the LC retention time was 6.66 min.

`COC(=O)c1c[nH]c2ccccc12`: the LC retention time was determined as 10.9 min. To `OCc1ccc2cc[nH]c2c1` belongs 8.46 min. To `Cn1c2c(c(=O)[nH]c1=O)C(c1ccccc1)C1=C(N2)c2ccccc2C1=O` (centres undefined) belongs 10.6 min; to `NC1CCCC1`, 6.51 min. The figure for `COc1ccc(C(CNC(=O)c2n[nH]c(=O)c3ccccc23)Cc2ccccc2)cc1OC` (centres undefined) is 13.3 min. For `Cc1n[nH]c(=O)nc1N=NCc1c[nH]c2ccccc12`, the LC retention time was 10 min. Turning to `Cc1cccc(NC(=O)C(Cc2c[nH]c3ccccc23)NC(=O)C(c2ccccc2)c2ccccc2)c1` (centres undefined), the LC retention time was 16.8 min.

In the case of `CCC(C)N1CNc2c(c(=O)[nH]c(=O)n2-c2ccc(C)c(C)c2)C1` (centres undefined), the LC retention time was 8.26 min.

Consider `CN1Cc2ccccc2CC1C(=O)O` (centres undefined), for which the LC retention time was 6.42 min.

`COc1ccc(-n2c(O)c(Cc3ccc(OC)c(OC)c3)c(=O)[nH]c2=O)cc1`: the LC retention time is 10.7 min. To `O=c1cc(Nc2ccccc2)c2ccccc2o1` belongs 12.2 min. `CC(O)CCN` (centres undefined): the LC retention time amounted to 3.82 min.
